{"source": "paper PMC11945201", "about": "“Enhancing the Oral Bioavailability of Glutathione Using Innovative Analogue Approaches” (Pharmaceutics, 2025)", "system": "γ-glutamyl transferase (GGT)", "assay_type": "in vitro ADME, equine", "conditions": "horse, 100 μgmL^−1, pH 9", "procedure": "Each compound and GSH (100 μgmL^−1, 0.0315 molL^−1) was added to each reaction vessel containing phosphate buffer solution (800 μL, pH 9.0). The reaction vessels were incubated at 37 °C with shaking for the entire duration of the experiment. Reaction was initiated by the addition of GGT enzyme solution (100 μL, 10 UmL^−1). […] The degradation rate of the novel compounds analysed by HPLC were compared with that of GSH. […] A GGT degradation less than 50% was considered resistance to GTT activity.", "data": [{"smiles": "CN(C(=O)CC[C@H](N)C(=O)O)[C@@H](CS)C(=O)NCC(=O)O", "note": "[Compound 1.70]", "values": [{"measurement": "% Degradation by GGT", "value": 11.7, "unit": "%"}]}]}
